Literature values as cited in US20090197941A1, “Pharmaceutical Compositons for the Treatment of Chronic Obstructive Pulmonary Disease” (priority 2005, published 2009).

How the values were obtained:
U87 human glioma cells = conditions: increasing concentrations of CBD, Boyden chamber, read-out: IC50 of tumour cell migration
CB2 receptors = CB2 receptors (Homo sapiens, UniProt P34972); conditions: known in the art
CB1 receptors = CB1 receptors (Homo sapiens, UniProt P21554); conditions: known in the art
Chain of CB1 receptors (P21554 whole entry): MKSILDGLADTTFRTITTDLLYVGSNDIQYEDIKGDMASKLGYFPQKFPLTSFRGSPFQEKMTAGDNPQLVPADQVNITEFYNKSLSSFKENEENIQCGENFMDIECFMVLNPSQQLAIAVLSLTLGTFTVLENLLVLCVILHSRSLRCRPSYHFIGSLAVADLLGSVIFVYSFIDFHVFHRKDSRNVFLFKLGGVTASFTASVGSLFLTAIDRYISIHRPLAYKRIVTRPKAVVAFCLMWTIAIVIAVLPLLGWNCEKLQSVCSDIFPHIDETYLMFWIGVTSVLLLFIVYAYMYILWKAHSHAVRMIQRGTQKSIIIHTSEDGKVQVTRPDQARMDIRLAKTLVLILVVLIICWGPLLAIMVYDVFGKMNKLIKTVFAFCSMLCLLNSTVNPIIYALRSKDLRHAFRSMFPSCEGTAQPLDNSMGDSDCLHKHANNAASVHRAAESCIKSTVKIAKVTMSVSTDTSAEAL

Chain of CB2 receptors (P34972 whole entry): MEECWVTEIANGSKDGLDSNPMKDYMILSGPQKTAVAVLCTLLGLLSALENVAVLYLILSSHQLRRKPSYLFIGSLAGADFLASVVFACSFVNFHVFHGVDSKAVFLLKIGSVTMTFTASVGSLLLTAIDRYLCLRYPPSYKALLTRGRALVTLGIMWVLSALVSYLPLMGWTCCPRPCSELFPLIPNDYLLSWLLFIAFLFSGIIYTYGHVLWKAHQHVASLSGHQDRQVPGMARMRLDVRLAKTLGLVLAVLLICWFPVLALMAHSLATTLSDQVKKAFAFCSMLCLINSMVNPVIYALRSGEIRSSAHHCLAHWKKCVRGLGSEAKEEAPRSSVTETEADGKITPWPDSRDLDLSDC

In the case of `C=C(C)[C@@H]1CCC(C)=C[C@H]1c1c(O)cc(CCCCC)cc1O` [CBD, cannabidiol], the IC50 (U87 human glioma cells) is given as 5.05 ± 1.1 µM, the “action at CB2 receptors” value (CB2 receptors) is given as “not to act” and the “action at CB1 receptors” value (CB1 receptors) is given as “only very weakly”.
